Results: US20140213447A1, “HERBICIDAL COMPOSITIONS COMPRISING 4-AMINO-3-CHLORO-6-(4-CHLORO-2-FLUORO-3-METHOXYPHENYL) PYRIDINE-2-CARBOXYLIC ACID OR A DERIVATIVE THEREOF AND CERTAIN TRIAZOLOPYRIMIDINE SULFONAMIDES” (DOW AGROSCIENCES LLC, priority 2013, published 2014)

Legend:
Assay type in all cases: in vivo
Conditions in all cases: alone, 14 d
[1] = test system: Setaria faberi Herrm. (giant foxtail); test: Postemergent herbicidal activity, greenhouse foliar application, SETFA
Experimental: (§1) Evaluation of Postemergent Herbicidal Activity. Seeds or nutlets of the desired test plant species were planted in Sun Gro Metro-Mix® 360 planting mixture, which typically has a pH of 6.0 to 6.8 and an organic matter content of about 30 percent, in plastic pots with a surface area of 64 square centimeters (cm^2). When required to ensure good germination and healthy plants, a fungicide treatment and/or other chemical or physical treatment was applied. The plants were grown for 7-21 days (d) in a greenhouse with an approximate 15 hour (h) photoperiod which was maintained at about 23-29° C. during the day and 22-28° C. during the night. Nutrients and water were added on a regular basis and supplemental lighting was provided with overhead metal halide 1000-Watt lamps as necessary. The plants were employed for testing when they reached the first or second true leaf stage.
(§2) A weighed amount, determined by the highest rate to be tested, of each test compound was placed in a 25 milliliter (mL) glass vial and was dissolved in 4 mL of a 97:3 volume per volume (v/v) mixture of acetone and dimethyl sulfoxide (DMSO) to obtain concentrated stock solutions. […] The concentrated stock solutions obtained were diluted with 20 mL of an aqueous mixture containing acetone, water, isopropyl alcohol, DMSO, Atplus 411F crop oil concentrate, and Triton® X-155 surfactant in a 48.5:39:10:1.5:1.0:0.02 v/v ratio to obtain spray solutions containing the highest application rates. Additional application rates were obtained by serial dilution of 12 mL of the high rate solution into a solution containing 2 mL of a 97:3 v/v mixture of acetone and DMSO and 10 mL of an aqueous mixture containing acetone, water, isopropyl alcohol, DMSO, Atplus 411F crop oil concentrate, and Triton X-155 surfactant in a 48.5:39:10:1.5:1.0:0.02 v/v ratio to obtain ½×, ¼×, ⅛× and 1/16× rates of the high rate. Compound requirements are based upon a 12 mL application volume at a rate of 187 liters per hectare (L/ha). Formulated compounds were applied to the plant material with an overhead Mandel track sprayer equipped with 8002E nozzles calibrated to deliver 187 L/ha over an application area of 0.503 square meters (m^2) at a spray height of 18 inches ([…]) above the average plant canopy height. Control plants were sprayed in the same manner with the solvent blank.
(§3) Treatments consisted of the methyl ester of 4-amino-3-chloro-6-(4-chloro-2-fluoro-3-methoxyphenyl)pyridine-2-carboxylic acid (Cmpd 1) as technical grade material and cloransulam-methyl (FirstRate®) and diclosulam (Strongarm®) alone and in combination. The form of compound of formula (I) was applied on an acid equivalent basis, and cloransulam-methyl and diclosulam were applied on an active ingredient basis.
(§4) The treated plants and control plants were placed in a greenhouse as described above and watered by subirrigation to prevent wash-off of the test compounds. After 14 d, the condition of the test plants as compared with that of the untreated plants was determined visually and scored on a scale of 0 to 100 percent where 0 corresponds to no injury and 100 corresponds to complete kill.
(§5) Results in Tables 1 and 2 are greenhouse trial results for foliar applied compositions. The values reported are percent (%) control visually rated. Colby's equation was used to determine the herbicidal effects expected from the mixtures (Colby, S. R. Calculation of the synergistic and antagonistic response of herbicide combinations. Weeds 1967, 15, 20-22.). More specifically, the following equation was used to calculate the expected activity of mixtures containing two active ingredients, A and B:
(§6) Expected=A+B−(A×B/100) • A=observed efficacy of active ingredient A at the same concentration as used in the mixture; • B=observed efficacy of active ingredient B at the same concentration as used in the mixture.

[2] = test system: Cyperus esculentus L. (yellow nutsedge); test: Postemergent herbicidal activity, greenhouse foliar application, CYPES
Experimental: as §1, §2, §3, §4, §5, §6

[3] = test system: Stellaria media (L.) Vill. (common chickweed); test: Postemergent herbicidal activity, greenhouse foliar application, STEME
Experimental: as §1, §2, §3, §4, §5, §6

[4] = test system: Sorghum vulgare (common sorghum); test: Postemergent herbicidal activity, greenhouse foliar application, SORVU
Experimental: as §1, §2, §3, §4, §5, §6

[5] = test system: Amaranthus retroflexus L. (redroot pigweed); test: Postemergent herbicidal activity, greenhouse foliar application, AMARE
Experimental: as §1, §2, §3, §4, §5, §6

[6] = test system: Viola tricolor (L.) (wild pansy); test: Postemergent herbicidal activity, greenhouse foliar application, VIOTR
Experimental: as §1, §2, §3, §4, §5, §6

[7] = test system: Ipomoea hederacea (L.) Jacq. (ivyleaf momingglory); test: Postemergent herbicidal activity, greenhouse foliar application, IPOHE
Experimental: as §1, §2, §3, §4, §5, §6

[8] = test system: Brassica napus (winter oilseed rape); test: Postemergent herbicidal activity, greenhouse foliar application, BRSNW
Experimental: as §1, §2, §3, §4, §5, §6

[9] = test system: Chenopodium album L. (common lambsquarters); test: Postemergent herbicidal activity, greenhouse foliar application, CHEAL
Experimental: as §1, §2, §3, §4, §5, §6

## COC(=O)c1nc(-c2ccc(Cl)c(OC)c2F)cc(N)c1Cl [Cmpd 1, methyl 4-amino-3-chloro-6-(4-chloro-2-fluoro-3-methoxyphenyl)pyridine-2-carboxylate]
[1]; 1.25 g ae/ha
  SETFA Obs, percent (%) control rated visually: 0%
[1]; 2.5 g ae/ha
  SETFA Obs, percent (%) control rated visually: 0%
[1]; 5 g ae/ha
  SETFA Obs, percent (%) control rated visually: 30%
[2]; 1.25 g ae/ha
  CYPES Obs, percent (%) control rated visually: 50%
[2]; 2.5 g ae/ha
  CYPES Obs, percent (%) control rated visually: 90%
[2]; 5 g ae/ha
  CYPES Obs, percent (%) control rated visually: 93%
[3]; 1.25 g ae/ha
  STEME Obs, percent (%) control rated visually: 30%
[3]; 2.5 g ae/ha
  STEME Obs, percent (%) control rated visually: 20%
[3]; 5 g ae/ha
  STEME Obs, percent (%) control rated visually: 40%
[4]; 1.25 g ae/ha
  SORVU Obs, percent (%) control rated visually: 0%
[4]; 2.5 g ae/ha
  SORVU Obs, percent (%) control rated visually: 0%
[4]; 5 g ae/ha
  SORVU Obs, percent (%) control rated visually: 0%
[5]; 1.25 g ae/ha
  AMARE Obs, percent (%) control rated visually: 50%
[5]; 2.5 g ae/ha
  AMARE Obs, percent (%) control rated visually: 60%
[5]; 5 g ae/ha
  AMARE Obs, percent (%) control rated visually: 90%
[6]; 1.25 g ae/ha
  VIOTR Obs, percent (%) control rated visually: 10%
[6]; 2.5 g ae/ha
  VIOTR Obs, percent (%) control rated visually: 10%
[6]; 5 g ae/ha
  VIOTR Obs, percent (%) control rated visually: 30%
[7]; 1.25 g ae/ha
  IPOHE Obs, percent (%) control rated visually: 10%
[7]; 2.5 g ae/ha
  IPOHE Obs, percent (%) control rated visually: 20%
[7]; 5 g ae/ha
  IPOHE Obs, percent (%) control rated visually: 20%
[8]; 1.25 g ae/ha
  BRSNW Obs, percent (%) control rated visually: 0%
[8]; 2.5 g ae/ha
  BRSNW Obs, percent (%) control rated visually: 5%
[8]; 5 g ae/ha
  BRSNW Obs, percent (%) control rated visually: 20%
[9]; 1.25 g ae/ha
  CHEAL Obs, percent (%) control rated visually: 70%
[9]; 2.5 g ae/ha
  CHEAL Obs, percent (%) control rated visually: 80%
[9]; 5 g ae/ha
  CHEAL Obs, percent (%) control rated visually: 93%

## CCOc1nc(F)cc2nc(S(=O)(=O)Nc3c(Cl)cccc3C(=O)OC)nn12 [cloransulam-methyl, methyl 3-chloro-2-[[(5-ethoxy-7-fluoro[1,2,4]triazolo[1,5-c]pyrimidin-2-yl)sulfonyl]amino]benzoate]
[1]; 4.375 g ai/ha
  SETFA Obs, percent (%) control rated visually: 0%
[1]; 8.75 g ai/ha
  SETFA Obs, percent (%) control rated visually: 0%
[1]; 17.5 g ai/ha
  SETFA Obs, percent (%) control rated visually: 0%
[3]; 4.375 g ai/ha
  STEME Obs, percent (%) control rated visually: 0%
[3]; 8.75 g ai/ha
  STEME Obs, percent (%) control rated visually: 0%
[3]; 17.5 g ai/ha
  STEME Obs, percent (%) control rated visually: 0%
[4]; 4.375 g ai/ha
  SORVU Obs, percent (%) control rated visually: 0%
[4]; 8.75 g ai/ha
  SORVU Obs, percent (%) control rated visually: 10%
[4]; 17.5 g ai/ha
  SORVU Obs, percent (%) control rated visually: 20%
[5]; 4.375 g ai/ha
  AMARE Obs, percent (%) control rated visually: 0%
[5]; 8.75 g ai/ha
  AMARE Obs, percent (%) control rated visually: 10%
[5]; 17.5 g ai/ha
  AMARE Obs, percent (%) control rated visually: 20%
[6]; 4.375 g ai/ha
  VIOTR Obs, percent (%) control rated visually: 10%
[6]; 8.75 g ai/ha
  VIOTR Obs, percent (%) control rated visually: 50%
[6]; 17.5 g ai/ha
  VIOTR Obs, percent (%) control rated visually: 65%
[7]; 4.375 g ai/ha
  IPOHE Obs, percent (%) control rated visually: 80%
[7]; 8.75 g ai/ha
  IPOHE Obs, percent (%) control rated visually: 85%
[7]; 17.5 g ai/ha
  IPOHE Obs, percent (%) control rated visually: 85%
[8]; 4.375 g ai/ha
  BRSNW Obs, percent (%) control rated visually: 90%
[8]; 8.75 g ai/ha
  BRSNW Obs, percent (%) control rated visually: 93%
[8]; 17.5 g ai/ha
  BRSNW Obs, percent (%) control rated visually: 95%
[9]; 4.375 g ai/ha
  CHEAL Obs, percent (%) control rated visually: 0%
[9]; 8.75 g ai/ha
  CHEAL Obs, percent (%) control rated visually: 10%
[9]; 17.5 g ai/ha
  CHEAL Obs, percent (%) control rated visually: 20%

## CCOc1nc(F)cc2nc(S(=O)(=O)Nc3c(Cl)cccc3Cl)nn12 [diclosulam, N-(2,6-dichlorophenyl)-5-ethoxy-7-fluoro[1,2,4]triazolo[1,5-c]pyrimidine-2-sulfonamide]
[1]; 4.375 g ai/ha
  SETFA Obs, percent (%) control rated visually: 0%
[1]; 8.75 g ai/ha
  SETFA Obs, percent (%) control rated visually: 0%
[1]; 17.5 g ai/ha
  SETFA Obs, percent (%) control rated visually: 0%
[2]; 4.375 g ai/ha
  CYPES Obs, percent (%) control rated visually: 60%
[2]; 8.75 g ai/ha
  CYPES Obs, percent (%) control rated visually: 60%
[2]; 17.5 g ai/ha
  CYPES Obs, percent (%) control rated visually: 70%
[3]; 4.375 g ai/ha
  STEME Obs, percent (%) control rated visually: 0%
[3]; 8.75 g ai/ha
  STEME Obs, percent (%) control rated visually: 0%
[3]; 17.5 g ai/ha
  STEME Obs, percent (%) control rated visually: 0%
[4]; 4.375 g ai/ha
  SORVU Obs, percent (%) control rated visually: 0%
[4]; 8.75 g ai/ha
  SORVU Obs, percent (%) control rated visually: 0%
[4]; 17.5 g ai/ha
  SORVU Obs, percent (%) control rated visually: 0%
[5]; 4.375 g ai/ha
  AMARE Obs, percent (%) control rated visually: 10%
[5]; 8.75 g ai/ha
  AMARE Obs, percent (%) control rated visually: 20%
[5]; 17.5 g ai/ha
  AMARE Obs, percent (%) control rated visually: 30%
[6]; 4.375 g ai/ha
  VIOTR Obs, percent (%) control rated visually: 10%
[6]; 8.75 g ai/ha
  VIOTR Obs, percent (%) control rated visually: 50%
[6]; 17.5 g ai/ha
  VIOTR Obs, percent (%) control rated visually: 70%
[7]; 4.375 g ai/ha
  IPOHE Obs, percent (%) control rated visually: 75%
[7]; 8.75 g ai/ha
  IPOHE Obs, percent (%) control rated visually: 80%
[7]; 17.5 g ai/ha
  IPOHE Obs, percent (%) control rated visually: 85%
[8]; 4.375 g ai/ha
  BRSNW Obs, percent (%) control rated visually: 80%
[8]; 8.75 g ai/ha
  BRSNW Obs, percent (%) control rated visually: 85%
[8]; 17.5 g ai/ha
  BRSNW Obs, percent (%) control rated visually: 90%
[9]; 4.375 g ai/ha
  CHEAL Obs, percent (%) control rated visually: 0%
[9]; 8.75 g ai/ha
  CHEAL Obs, percent (%) control rated visually: 10%
[9]; 17.5 g ai/ha
  CHEAL Obs, percent (%) control rated visually: 40%
